According to ChEMBL document CHEMBL3751693, “Synthesis, antimicrobial evaluation and molecular modeling of 5-hydroxyisoquinolinium salt series; the effect of the hydroxyl moiety” (Bioorg Med Chem, 2016):

Key:
Staphylococcus aureus [1] = test: Antimicrobial activity against clinical isolate Staphylococcus aureus CCM 451608 after 24 hrs; format: functional; settings: CCM 451608, 24 h
Staphylococcus aureus [2] = test: Antimicrobial activity against clinical isolate Staphylococcus aureus CCM 451608 after 48 hrs; format: functional; settings: CCM 451608, 48 h
Staphylococcus aureus [3] = test: Antimicrobial activity against clinical isolate methicillin-resistant Staphylococcus aureus H 599608 after 24 hrs; format: functional; settings: H 599608, 24 h
Staphylococcus aureus [4] = test: Antimicrobial activity against clinical isolate methicillin-resistant Staphylococcus aureus H 599608 after 48 hrs; format: functional; settings: H 599608, 48 h
[5] = test system: Staphylococcus epidermidis; test: Antimicrobial activity against clinical isolate Staphylococcus epidermidis H 696608 after 24 hrs; format: functional; settings: H 696608, 24 h
[6] = test system: Staphylococcus epidermidis; test: Antimicrobial activity against clinical isolate Staphylococcus epidermidis H 696608 after 48 hrs; format: functional; settings: H 696608, 48 h
Enterococcus sp. [7] = test: Antimicrobial activity against clinical isolate Enterococcus sp. J 1436508 after 24 hrs; format: functional; settings: J 1436508, 24 h
Enterococcus sp. [8] = test: Antimicrobial activity against clinical isolate Enterococcus sp. J 1436508 after 48 hrs; format: functional; settings: J 1436508, 48 h
Escherichia coli [9] = test: Antimicrobial activity against clinical isolate Escherichia coli CCM 4517 after 24 hrs; format: functional; settings: CCM 4517, 24 h
Escherichia coli [10] = test: Antimicrobial activity against clinical isolate Escherichia coli CCM 4517 after 48 hrs; format: functional; settings: CCM 4517, 48 h
Klebsiella pneumoniae [11] = test: Antimicrobial activity against clinical isolate Klebsiella pneumoniae D 1175008 after 24 hrs; format: functional; settings: D 1175008, 24 h
Klebsiella pneumoniae [12] = test: Antimicrobial activity against clinical isolate Klebsiella pneumoniae D 1175008 after 48 hrs; format: functional; settings: D 1175008, 48 h
Klebsiella pneumoniae [13] = test: Antimicrobial activity against clinical isolate ESBL-Klebsiella pneumoniae J 1436808 after 24 hrs; format: functional; settings: J 1436808, 24 h
Klebsiella pneumoniae [14] = test: Antimicrobial activity against clinical isolate ESBL-Klebsiella pneumoniae J 1436808 after 48 hrs; format: functional; settings: J 1436808, 48 h
Pseudomonas aeruginosa [15] = test: Antimicrobial activity against clinical isolate Pseudomonas aeruginosa CCM 1961 after 72 hrs; format: functional; settings: CCM 1961, 72 h
Pseudomonas aeruginosa [16] = test: Antimicrobial activity against clinical isolate Pseudomonas aeruginosa CCM 1961 after 120 hrs; format: functional; settings: CCM 1961, 120 h
Candida albicans [17] = test: Antimicrobial activity against Candida albicans ATCC 44859 after 24 hrs by spectrophotometry; format: functional; settings: ATCC 44859, 24 h
Aspergillus fumigatus [18] = test: Antimicrobial activity against Aspergillus fumigatus 231 after 24 hrs by spectrophotometry; format: functional; settings: Aspergillus fumigatus, 231, 24 h
Candida albicans [19] = test: Antimicrobial activity against Candida albicans ATCC 44859 after 48 hrs by spectrophotometry; format: functional; settings: ATCC 44859, 48 h
Candida tropicalis [20] = test: Antimicrobial activity against Candida tropicalis 156 after 24 hrs by spectrophotometry; format: functional; settings: Candida tropicalis, 156, 24 h
Candida tropicalis [21] = test: Antimicrobial activity against Candida tropicalis 156 after 48 hrs by spectrophotometry; format: functional; settings: Candida tropicalis, 156, 48 h
Pichia kudriavzevii [22] = test: Antimicrobial activity against Candida krusei E28 after 24 hrs by spectrophotometry; format: functional; settings: E28, 24 h
Pichia kudriavzevii [23] = test: Antimicrobial activity against Candida krusei E28 after 48 hrs by spectrophotometry; format: functional; settings: E28, 48 h
Nakaseomyces glabratus [24] = test: Antimicrobial activity against Candida glabrata 20/I after 24 hrs by spectrophotometry; format: functional
Nakaseomyces glabratus [25] = test: Antimicrobial activity against Candida glabrata 20/I after 48 hrs by spectrophotometry; format: functional
Trichosporon asahii [26] = test: Antimicrobial activity against Trichosporon asahii 1188 after 24 hrs by spectrophotometry; format: functional; settings: Trichosporon asahii, 1188, 24 h
Trichosporon asahii [27] = test: Antimicrobial activity against Trichosporon asahii 1188 after 48 hrs by spectrophotometry; format: functional; settings: Trichosporon asahii, 1188, 48 h
Aspergillus fumigatus [28] = test: Antimicrobial activity against Aspergillus fumigatus 231 after 48 hrs by spectrophotometry; format: functional; settings: Aspergillus fumigatus, 231, 48 h
Lichtheimia corymbifera [29] = test: Antimicrobial activity against Absidia corymbifera 272 after 24 hrs by spectrophotometry; format: functional; settings: Lichtheimia corymbifera, 272, 24 h
Lichtheimia corymbifera [30] = test: Antimicrobial activity against Absidia corymbifera 272 after 48 hrs by spectrophotometry; format: functional; settings: Lichtheimia corymbifera, 272, 48 h
[31] = test system: Trichophyton mentagrophytes; test: Antimicrobial activity against Trichophyton mentagrophytes 445 after 72 hrs by spectrophotometry; format: functional; settings: Trichophyton mentagrophytes, 445, 72 h
[32] = test system: Trichophyton mentagrophytes; test: Antimicrobial activity against Trichophyton mentagrophytes 445 after 120 hrs by spectrophotometry; format: functional; settings: Trichophyton mentagrophytes, 445, 120 h
[33] = Cytotoxicity against CHOK1 cells after 24 hrs by MTT assay; format: cell-based; settings: Cricetulus griseus, CHO-K1, 24 h

For `CCCCCCCCCCCCCCCCCC[n+]1ccc2ccccc2c1`, the MIC (Staphylococcus aureus [1]) was 0.5 µM, the MBC (Staphylococcus aureus [2]) was 2 µM and the MIC (Staphylococcus aureus [2]) was 0.5 µM. For the same molecule, the MIC (Staphylococcus aureus [3]) was 0.5 µM, the MBC (Staphylococcus aureus [4]) was 2 µM and the MIC (Staphylococcus aureus [4]) was 0.5 µM. For the same molecule, the MIC [5] was 0.5 µM, the MBC [6] was 2 µM and the MIC [6] was 0.5 µM. It also gave an MIC (Enterococcus sp. [7]) of 2 µM, an MBC (Enterococcus sp. [8]) of 2 µM and an MIC (Enterococcus sp. [8]) of 2 µM. The MIC (Escherichia coli [9]) was 31 µM, the MBC (Escherichia coli [10]) was 31 µM and the MIC (Escherichia coli [10]) was 31 µM. For the same molecule, the MIC (Klebsiella pneumoniae [11]) was 63 µM, the MBC (Klebsiella pneumoniae [12]) was 63 µM and the MIC (Klebsiella pneumoniae [12]) was 63 µM. The MIC (Klebsiella pneumoniae [13]) was 63 µM, the MBC (Klebsiella pneumoniae [14]) was 250 µM and the MIC (Klebsiella pneumoniae [14]) was 63 µM. For the same molecule, the MIC (Pseudomonas aeruginosa [15]) was 125 µM, the MBC (Pseudomonas aeruginosa [16]) was 250 µM and the MIC (Pseudomonas aeruginosa [16]) was 125 µM. For the same molecule, the MIC (Candida albicans [17]) was 2 µM, the MIC (Aspergillus fumigatus [18]) was 63 µM and the MFC (Candida albicans [19]) was 2 µM. The MIC (Candida albicans [19]) was 2 µM, the MIC (Candida tropicalis [20]) was 2 µM and the MFC (Candida tropicalis [21]) was 2 µM. For the same molecule, the MIC (Candida tropicalis [21]) was 2 µM, the MIC (Pichia kudriavzevii [22]) was 2 µM and the MFC (Pichia kudriavzevii [23]) was 2 µM. For the same molecule, the MIC (Pichia kudriavzevii [23]) was 2 µM, the MIC (Nakaseomyces glabratus [24]) was 1 µM and the MFC (Nakaseomyces glabratus [25]) was 2 µM. The MIC (Nakaseomyces glabratus [25]) was 1 µM, the MIC (Trichosporon asahii [26]) was 2 µM and the MFC (Trichosporon asahii [27]) was 2 µM. It also gave an MIC (Trichosporon asahii [27]) of 2 µM, an MFC (Aspergillus fumigatus [28]) of 63 µM and an MIC (Aspergillus fumigatus [28]) of 63 µM. It also gave an MIC (Lichtheimia corymbifera [29]) of 7.8 µM, an MFC (Lichtheimia corymbifera [30]) of 63 µM and an MIC (Lichtheimia corymbifera [30]) of 7.8 µM. For the same molecule, the MIC [31] was 2 µM, the MFC [32] was 31 µM and the MIC [32] was 2 µM. It also gave an IC50 [33] of 6 µM.
`CCCCCCCCCC[n+]1ccc2ccccc2c1` gave an MIC (Staphylococcus aureus [1]) of 16 µM, an MBC (Staphylococcus aureus [2]) of 31 µM and an MIC (Staphylococcus aureus [2]) of 16 µM. For the same molecule, the MIC (Staphylococcus aureus [3]) was 31 µM, the MBC (Staphylococcus aureus [4]) was 125 µM and the MIC (Staphylococcus aureus [4]) was 31 µM. It also gave an MIC [5] of 2 µM, an MBC [6] of 16 µM and an MIC [6] of 2 µM. For the same molecule, the MIC (Enterococcus sp. [7]) was 63 µM, the MBC (Enterococcus sp. [8]) was 125 µM and the MIC (Enterococcus sp. [8]) was 63 µM. For the same molecule, the MIC (Escherichia coli [9]) was 63 µM, the MBC (Escherichia coli [10]) was 125 µM and the MIC (Escherichia coli [10]) was 63 µM. It also gave an MIC (Klebsiella pneumoniae [11]) of 63 µM, an MBC (Klebsiella pneumoniae [12]) of 125 µM and an MIC (Klebsiella pneumoniae [12]) of 63 µM. It also gave an MIC (Klebsiella pneumoniae [13]) of 250 µM, an MBC (Klebsiella pneumoniae [14]) of 500 µM and an MIC (Klebsiella pneumoniae [14]) of 250 µM. The MIC (Pseudomonas aeruginosa [15]) was > 500 µM, the MBC (Pseudomonas aeruginosa [16]) was > 500 µM and the MIC (Pseudomonas aeruginosa [16]) was > 500 µM. It also gave an MIC (Candida albicans [17]) of 16 µM, an MIC (Aspergillus fumigatus [18]) of 500 µM and an MFC (Candida albicans [19]) of 63 µM. The MIC (Candida albicans [19]) was 16 µM, the MIC (Candida tropicalis [20]) was 3.9 µM and the MFC (Candida tropicalis [21]) was 7.8 µM. The MIC (Candida tropicalis [21]) was 3.8 µM, the MIC (Pichia kudriavzevii [22]) was 0.5 µM and the MFC (Pichia kudriavzevii [23]) was 2 µM. For the same molecule, the MIC (Pichia kudriavzevii [23]) was 0.5 µM, the MIC (Nakaseomyces glabratus [24]) was 7.8 µM and the MFC (Nakaseomyces glabratus [25]) was 31 µM. The MIC (Nakaseomyces glabratus [25]) was 7.8 µM, the MIC (Trichosporon asahii [26]) was 250 µM and the MFC (Trichosporon asahii [27]) was 250 µM. The MIC (Trichosporon asahii [27]) was 250 µM, the MFC (Aspergillus fumigatus [28]) was > 500 µM and the MIC (Aspergillus fumigatus [28]) was 500 µM. The MIC (Lichtheimia corymbifera [29]) was > 500 µM, the MFC (Lichtheimia corymbifera [30]) was > 500 µM and the MIC (Lichtheimia corymbifera [30]) was > 500 µM. For the same molecule, the MIC [31] was 63 µM, the MFC [32] was 125 µM and the MIC [32] was 63 µM. It also gave an IC50 [33] of 41 µM.
